Source: patent US12590062B2, “PD-1/PD-L1 inhibitors” (Gilead Sciences, Inc., priority 2017, dated 2026)
pEC50, pIC50: −log10 of the molar value.

Tests used:
[1] = target: PD-1/PD-L1 (Homo sapiens, UniProt Q9NZQ7); test: PD-1/PD-L1 biochemical protein-protein interaction assay (ALPHA); type: binding; settings: 0.3 nM His tagged PD-L1, 2.5 nM biotinylated Fc-PD-1, 60 minutes at 25° C., read-out: IC50 PD-L1-PD-1 Alpha IC50-mono PD-L1-fcP-D1
Summary of the method: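 Extracellular-domain binding of His-tagged PD-L1 (0.3 nM final) to biotinylated Fc-PD-1 (2.5 nM final) was measured by ALPHA in 25 mM Hepes pH 7.4, 150 mM NaCl, 3.4 mM EDTA, 0.005% Tween 20, 0.01% BSA. After 60 min at 25° C, anti-His acceptor and streptavidin donor beads were added; IC50 from four-parameter fits.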

[2] = target: T1, PD-L1 (Homo sapiens, UniProt Q9NZQ7); test: PD-L1/PD-L1 dimerization biochemical protein-protein interaction assay (ALPHA); type: binding; settings: compound-induced PD-L1 dimerization, head prints '1 nM' (0.5 nM His-tagged PD-L1 and 0.5 nM FLAG-tagged PD-L1), read-out: AC50 PDL1 Dimer Alpha 1 nM
T1 construct: determine if they can specifically dimerize the extracellular domains of PD-L1
T1 sequence (Q9NZQ7 19-238 limits assumed): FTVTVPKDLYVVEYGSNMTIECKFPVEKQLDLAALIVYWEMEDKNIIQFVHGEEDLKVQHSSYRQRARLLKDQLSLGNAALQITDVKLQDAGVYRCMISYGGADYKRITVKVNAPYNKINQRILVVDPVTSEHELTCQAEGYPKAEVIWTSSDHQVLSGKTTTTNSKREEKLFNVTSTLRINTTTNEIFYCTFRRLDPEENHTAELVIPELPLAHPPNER
T1 sequence (Q9NZQ7 19-238 limits assumed): as above
Summary of the method: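 ALPHA proximity assay of compound-induced dimerization of 0.5 nM His-tagged and 0.5 nM FLAG-tagged PD-L1 extracellular domains in Hepes pH 7.4 buffer, 2 h at 25 °C. Anti-His acceptor then anti-FLAG donor beads, 60 min each; AC50 from four-parameter fit.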

[3] = target: T2, PD-1/PD-L1 interaction (Homo sapiens, UniProt Q9NZQ7); test: PD-1/PD-L1 NFAT reporter co-culture assay; type: cell-based; settings: Jurkat PD-1 NFAT-luciferase cells co-cultured with aAPC-PD-L1 CHO cells, 6 hrs at 37° C.; read-out: EC50 NFAT Luciferase
T2 construct: expressed in transfected cells; host or cells: CHO cells (aAPC-PD-L1) co-cultured with Jurkat cells overexpressing PD-1 and an NFAT-luciferase reporter
T2 sequence (Q9NZQ7 19-290): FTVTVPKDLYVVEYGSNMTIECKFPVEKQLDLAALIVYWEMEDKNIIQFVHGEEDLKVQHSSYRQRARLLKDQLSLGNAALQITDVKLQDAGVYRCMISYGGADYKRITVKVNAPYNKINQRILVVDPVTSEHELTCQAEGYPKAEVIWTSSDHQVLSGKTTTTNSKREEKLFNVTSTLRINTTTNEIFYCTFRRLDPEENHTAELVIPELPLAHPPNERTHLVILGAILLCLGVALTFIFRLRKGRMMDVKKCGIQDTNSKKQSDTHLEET
Summary of the method: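 Compounds are scored by restoration of NFAT-luciferase signal in PD-1-expressing Jurkat cells cultured 6 h at 37 °C on CHO cells presenting anti-CD3 and PD-L1; EC50 values derive from four-parameter curve fitting.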

PD-1/PD-L1, sequence (Q9NZQ7 19-238 limits assumed): as the sequence (Q9NZQ7 19-238 limits assumed) above

Structure (SMILES) | pIC50 [1] | AC50 [2] [nM] | pEC50 [3]
COc1nc(O[C@H]2CCc3c(-c4cccc(-c5ccc(C6=N[C@@H](C)CN6)c(OC)n5)c4Cl)cccc32)c(Br)cc1CN1CC[C@H](O)[C@H](F)C1 [Example 774] | 8.88 | 2730 | 6.33
COc1nc(-c2cccc(-c3cccc(COc4nc(OC)c(CN5CC6(CNC(=O)C6)C5)cc4Cl)c3Cl)c2Cl)ccc1CNC[C@@H]1CCC(=O)N1 [Example 430] | 8.69 | 290 | 6.57
COc1nc(O[C@H]2CCc3c(-c4cccc(-c5ccc6c(c5)C[C@@H](N)C6)c4Cl)cccc32)ccc1CNC[C@@H]1CCC(=O)N1 [Example 793] | 8.76 | 187 | 5.74
Cc1c(COc2cc(OCc3cncc(C#N)c3)c(CN[C@@](C)(CO)C(=O)O)cc2Cl)cccc1-c1cccc(-c2ccc(CNCCc3c[nH]cn3)cc2)c1C [Example 360, (S)-2-((4-((4″-(((2-(1H-imidazol-4-yl)ethyl)amino)methyl)-2,2′-dimethyl-[1,1′:3′,1″-terphenyl]-3-yl)methoxy)-5-chloro-2-((5-cyanopyridin-3-yl)methoxy)benzyl)amino)-3-hydroxy-2-methylpropanoic acid] | 8.95 | 224 | 6.28
Cc1c(COc2cc(OCc3cncc(C#N)c3)c(CNC[C@@H](O)CC(=O)O)cc2Cl)cccc1-c1cccc(-c2ccc3c(c2)CC(=O)N3CCN(C)C)c1C [Example 448] | 9.21 | 903 | 6.00
C[C@@](CO)(NCc1cc(Cl)c(OCc2cccc(-c3cccc(-c4ccc(OCCNCCO)cc4)c3Cl)c2Cl)nc1OCc1cncc(C#N)c1)C(=O)O [Example 340, (S)-2-(((5-chloro-2-((5-cyanopyridin-3-yl)methoxy)-6-((2,2′-dichloro-4″-(2-((2-hydroxyethyl)amino)ethoxy)-[1,1′:3′,1″-terphenyl]-3-yl)methoxy)pyridin-3-yl)methyl)amino)-3-hydroxy-2-methylpropanoic acid] | 10.06 | 27.8 | 6.66
Cc1c(COc2cc(OCc3cncc(C#N)c3)c(CN[C@@](C)(CO)C(=O)O)cc2Cl)cccc1-c1cccc(-c2ccc(OCCNCCO)cc2)c1C [Example 311, (S)-2-((5-chloro-2-((5-cyanopyridin-3-yl)methoxy)-4-((4″-(2-((2-hydroxyethyl)amino)ethoxy)-2, 2′-dimethyl-[1, 1′:3′,1″-terphenyl]-3-yl)methoxy)benzyl)amino)-3-hydroxy-2-methylpropanoic acid] | 10.19 | 75.5 | 6.98
COc1nc(-c2cccc(-c3cccc4c3CC[C@@H]4Oc3ccc(CN[C@@](C)(CO)C(=O)O)c(OCc4cncc(C#N)c4)n3)c2C)ccc1C1=NCCN1 [Example 750] | 10.19 | 72.1 | 6.65
CS(=O)(=O)c1cncc(COc2nc(OCc3cccc(-c4cccc(-c5ccc6c(c5)C[C@@H](N)C6)c4Cl)c3Cl)c(Br)cc2CN2CCCC[C@H]2C(=O)O)c1 [Example 544] | 10.05 | 17.3 | 6.96
Cc1c(COc2cc(OCc3cncc(C#N)c3)c(CN[C@@](C)(CO)C(=O)O)cc2Cl)cccc1-c1cccc(-c2ccc(OCCc3cccnc3)c(CNCCO)c2)c1C [Example 364, (S)-2-((5-chloro-2-((5-cyanopyridin-3-yl)methoxy)-4-((3″-(((2-hydroxyethyl)amino)methyl)-2,2′-dimethyl-4″-(2-(pyridin-3-yl)ethoxy)-[1,1′:3′,1″-terphenyl]-3-yl)methoxy)benzyl)amino)-3-hydroxy-2-methylpropanoic acid] | 9.52 | 98.3 | 6.45
COc1nc(O[C@H]2CCc3c(-c4cccc(-c5cnc(CNC[C@H]6C[C@H](O)C6)c(OC)n5)c4Cl)cccc32)c(Cl)cc1CN1CC[C@H](C(=O)O)C1 [Example 711] | 10.16 | 103 | 7.16

Results, then the compound that gave them:

pIC50 [1] | AC50 [2] [nM] | pEC50 [3] | Structure (SMILES)
10.19 | ≥ 10000 | 6.60 | COc1cc(-c2cccc(-c3cccc(-c4cnc(C5=NCCN5)c(OC)c4)c3Cl)c2Cl)cnc1CNC[C@@H](O)CC(=O)O [Example 629]
9.53 | 156 | ≤ 4.30 | COc1nc(-c2cccc(-c3cccc(-c4ccn5cc(CN6CC(O)C6)nc5c4)c3Cl)c2Cl)ccc1CN1CC(O)C1 [Example 616]
9.92 | 24.7 | 6.87 | COc1nc(-c2cccc(-c3cccc4c3CC[C@@H]4Oc3nc(OCc4cncc(C#N)c4)c(CN[C@@](C)(CO)C(=O)O)cc3Br)c2Br)ccc1CNC[C@@H]1CCC(=O)N1 [Example 699]
10.19 | 33.6 | 7.29 | COc1nc(-c2cccc(-c3cccc(COc4nc(OCc5cncc(C#N)c5)c(CNC[C@@H](O)CC(=O)O)cc4Br)c3Cl)c2Cl)ccc1C1=NCCN1 [Example 558]
10.17 | 25.1 | 6.51 | CN1CCCC1c1ccc(-c2cccc(-c3cccc4c3CC[C@@H]4Oc3nc(OCc4cncc(C#N)c4)c(CN[C@@](C)(CO)C(=O)O)cc3Cl)c2Cl)cc1 (stereo partly drawn) [Example 290, (2S)-2-(((5-chloro-6-(((1S)-4-(2-chloro-4′-(1-methylpyrrolidin-2-yl)-[1,1′-biphenyl]-3-yl)-2,3-dihydro-1H-inden-1-yl)oxy)-2-((5-cyanopyridin-3-yl)methoxy)pyridin-3-yl)methyl)amino)-3-hydroxy-2-methylpropanoic acid]
10.19 | 24.2 | 7.96 | COc1nc(O[C@H]2CCc3c(-c4cccc(-c5cnc(CN6CC(CO)C6)c(OC)n5)c4Cl)cccc32)c(Cl)cc1CN1CC[C@H](C(=O)O)C1 [Example 703]
9.49 | 97.5 | 6.92 | Cc1c(COc2cc(OCc3cncc(C#N)c3)c(CNC[C@@H](O)CC(=O)O)cc2Cl)cccc1-c1cccc(OCc2cc(OCc3cncc(C#N)c3)c(CNC[C@@H](O)CC(=O)O)cc2Cl)c1C [Example 390, (S)-4-((4-((3′-((4-((((S)-3-carboxy-2-hydroxypropyl)amino)methyl)-2-chloro-5-((5-cyanopyridin-3-yl)methoxy)benzyl)oxy)-2,2′-dimethyl-[1,1′-biphenyl]-3-yl)methoxy)-5-chloro-2-((5-cyanopyridin-3-yl)methoxy)benzyl)amino)-3-hydroxybutanoic acid]
9.77 | 24.3 | 7.49 | N#Cc1cc(C#N)cc(COc2nc(OCc3cccc(-c4cccc(-c5ccc(CNC[C@@H]6CCC(=O)N6)cc5)c4Cl)c3Cl)c(Cl)cc2CNC[C@@H](O)CC(=O)O)c1 [Example 576]
10.19 | 35.3 | 7.22 | COc1cc(-c2cccc(-c3cccc(COc4cc(OCc5cncc(C#N)c5)c(CN[C@@](C)(CO)C(=O)O)cc4Cl)c3C)c2C)ccc1C1=NCCN1 [Example 501]
10.19 | 104 | 7.04 | Cc1c(COc2cc(OCc3cncc(C#N)c3)c(CN[C@@](C)(CO)C(=O)O)cc2Cl)cccc1-c1cccc(-c2ccc(OCCN3CCC4(CCCNC4=O)CC3)cc2)c1C [Example 516]
8.08 | ≥ 10000 | 5.84 | CCOC(=O)[C@@H]1CCCCN1Cc1cc(Br)c(O[C@H]2CCc3c(-c4cccc(-c5ccc(C6=NCCN6)c(OC)n5)c4Cl)cccc32)nc1OC [Example 776]
9.74 | 60.3 | 6.80 | Cc1c(COc2nc(OCc3cncc(C#N)c3)c(CN[C@@](C)(CO)C(=O)O)cc2Cl)cccc1-c1cccc(-c2ccc(OCCNCCO)cc2)c1C [Example 581]
10.13 | 181 | 6.67 | Cc1c(COc2cc(OCc3cncc(C#N)c3)c(CNC[C@@H](O)CC(=O)O)cc2Cl)cccc1-c1cccc(NC(=O)c2ccc(CNC[C@@H](O)CC(=O)O)cn2)c1C [Example 346, (S)-4-(((6-((3′-((4-((((S)-3-carboxy-2-hydroxypropyl)amino)methyl)-2-chloro-5-((5-cyanopyridin-3-yl)methoxy)phenoxy)methyl)-2,2′-dimethyl-[1,1′-biphenyl]-3-yl)carbamoyl)pyridin-3-yl)methyl)amino)-3-hydroxybutanoic acid]
10.05 | 24.4 | 6.84 | CC(C)(NCc1cc(Br)c(OCc2cccc(-c3cccc(-c4ccc5c(c4)C[C@@H](N)C5)c3Cl)c2Cl)nc1OCc1cncc(S(C)(=O)=O)c1)C(=O)O [Example 545]
9.22 | 195 | 5.84 | Cc1c(COc2nc(OCc3cccnc3)c(CNC[C@@H](O)CC(=O)O)cc2Br)cccc1-c1cccc(COc2nc(OCc3cccnc3)c(CNC[C@@H](O)CC(=O)O)cc2Br)c1C [Example 137, (3S,3′S)-4,4′-((((((2,2′-dimethyl-[1,1′-biphenyl]-3,3′-diyl)bis(methylene))bis(oxy))bis(5-bromo-2-(pyridin-3-ylmethoxy)pyridine-6,3-diyl))bis(methylene))bis(azanediyl))bis(3-hydroxybutanoic acid)]
